How the values were obtained:
[1] = molecular target: T1, integrins haα4 and β1 (VLA-4) expressed on CHO cells (Homo sapiens, UniProt P05556+P13612); assay: In vitro Evaluation Test (1): binding of Eu3+-hVCAM-1 D1D7-IgG to CHO cells expressing integrins α4 and β1; details: inhibition of Eu3+-hVCAM-1 D1D7-IgG binding to CHO cells expressing α4β1; Ki calculated from IC50
T1 construct: expressed in transfected cells; host or cells: CHO cells
Outline: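 CHO cells transduced with human α4 and β1 were grown for 2 days. They were incubated 1 h at room temperature with Eu3+-hVCAM-1 D1D7-IgG (diluted to 2 nM before addition) and compound, with or without 6% HSA, in HEPES pH 7.5 containing Ca2+, Mg2+ and 4 mM Mn2+. Time-resolved fluorescence gave IC50; Ki used a Scatchard-derived Kd (0.06–20 nM).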

[2] = Evaluation of oral bioavailability by mouse bioassay; assay type: in vivo; details: 10 mg/kg oral, female Balb/C mice, serum 15 minutes after administration, read-out: Blood level
Experimental: A test compound was suspended or dissolved in a proper administration medium to give a concentration of 1 mg/ml. To 7 to 9 week old female Balb/C mice, 10 mg/kg of the resulting suspension or solution was orally administered. Fifteen minutes after the administration, blood was collected from the postcava under anesthesia with ether and the serum was separated from it. The concentration of each test compound was determined by estimating the serum level from a calibration curve obtained with VCAM-1/VLA-4 inhibitory activity as an index or measuring the concentration by using LC/MS/MS.

T1 sequence (P13612 34-1032): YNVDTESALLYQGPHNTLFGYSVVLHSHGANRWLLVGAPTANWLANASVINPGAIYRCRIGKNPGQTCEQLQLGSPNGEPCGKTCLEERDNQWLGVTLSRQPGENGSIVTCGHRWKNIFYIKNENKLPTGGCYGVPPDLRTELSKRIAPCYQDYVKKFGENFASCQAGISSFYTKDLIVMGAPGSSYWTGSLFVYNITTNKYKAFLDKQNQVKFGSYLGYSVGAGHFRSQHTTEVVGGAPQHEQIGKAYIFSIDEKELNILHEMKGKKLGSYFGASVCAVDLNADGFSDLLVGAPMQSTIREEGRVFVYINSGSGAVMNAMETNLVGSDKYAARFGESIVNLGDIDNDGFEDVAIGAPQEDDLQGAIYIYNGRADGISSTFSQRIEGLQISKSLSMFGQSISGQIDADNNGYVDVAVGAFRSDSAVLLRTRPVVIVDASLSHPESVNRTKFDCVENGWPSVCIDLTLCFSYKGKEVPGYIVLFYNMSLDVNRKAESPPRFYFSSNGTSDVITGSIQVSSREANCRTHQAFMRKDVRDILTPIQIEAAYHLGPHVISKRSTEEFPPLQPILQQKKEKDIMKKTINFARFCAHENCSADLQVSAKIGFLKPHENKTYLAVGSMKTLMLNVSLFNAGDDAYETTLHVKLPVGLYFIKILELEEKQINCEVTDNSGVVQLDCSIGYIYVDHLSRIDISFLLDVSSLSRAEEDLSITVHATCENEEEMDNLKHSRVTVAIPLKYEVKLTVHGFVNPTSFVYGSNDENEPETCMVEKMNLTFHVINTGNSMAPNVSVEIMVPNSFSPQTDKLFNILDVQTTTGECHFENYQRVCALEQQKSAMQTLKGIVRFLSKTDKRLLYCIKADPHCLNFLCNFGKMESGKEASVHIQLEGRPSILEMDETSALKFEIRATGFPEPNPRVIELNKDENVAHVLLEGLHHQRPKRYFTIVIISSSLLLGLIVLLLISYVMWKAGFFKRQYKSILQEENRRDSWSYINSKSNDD
T1 sequence (P05556 21-798): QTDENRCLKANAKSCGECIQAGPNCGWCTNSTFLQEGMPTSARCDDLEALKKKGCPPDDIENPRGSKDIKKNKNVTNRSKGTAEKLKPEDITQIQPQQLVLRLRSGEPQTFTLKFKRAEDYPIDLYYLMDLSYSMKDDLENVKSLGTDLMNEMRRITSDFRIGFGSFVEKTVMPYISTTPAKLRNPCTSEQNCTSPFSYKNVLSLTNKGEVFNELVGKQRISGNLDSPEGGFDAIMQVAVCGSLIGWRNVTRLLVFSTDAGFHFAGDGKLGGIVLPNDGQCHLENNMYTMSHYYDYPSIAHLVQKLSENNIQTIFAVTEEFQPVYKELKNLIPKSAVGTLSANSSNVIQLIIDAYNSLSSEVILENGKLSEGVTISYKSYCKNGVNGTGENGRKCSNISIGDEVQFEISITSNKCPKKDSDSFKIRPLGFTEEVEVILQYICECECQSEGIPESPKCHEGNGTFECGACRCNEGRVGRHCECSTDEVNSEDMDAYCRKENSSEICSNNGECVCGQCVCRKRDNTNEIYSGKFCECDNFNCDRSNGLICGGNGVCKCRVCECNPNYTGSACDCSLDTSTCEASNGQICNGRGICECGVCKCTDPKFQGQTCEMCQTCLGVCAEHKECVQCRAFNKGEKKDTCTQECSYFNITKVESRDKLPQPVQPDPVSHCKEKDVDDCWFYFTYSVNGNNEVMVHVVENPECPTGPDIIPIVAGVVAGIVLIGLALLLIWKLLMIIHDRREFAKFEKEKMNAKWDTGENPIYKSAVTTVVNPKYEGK

Row | Ki [1] | concentration at 15 min [2] | Structure (SMILES)
1 | 5.4 nM | 2.5 µg/mL | C[C@H]1CC[C@@H](CO[C@H]2CC[C@H](C(=O)O)CC2)N1C(=O)Cc1cc(Cl)c(NC(=O)c2cn(C)c3ccccc23)cc1F [Example 136, trans-4-(1-((5-chloro-2-fluoro-4-((1-methyl-3-indolyl)carbonylamino)phenyl)acetyl)-(5S)-methyl-(2S)-pyrrolidinylmethoxy)cyclohexanecarboxylic acid]
2 | 5 nM | 2.73 µg/mL | CO[C@H]1C[C@@H](CO[C@H]2CC[C@H](C(=O)O)CC2)N(C(=O)Cc2cc(Cl)c(NC(=O)c3nsc4ccccc34)cc2F)C1 [Example 171, trans-4-(1-(5-Chloro-2-fluoro-4-((3-benzo(d)isothiazolylcarbonyl)amino)phenylacetyl)-(4S)-methoxy-(2S)-pyrrolidinylmethoxy)cyclohexanecarboxylic acid]
3 | 10 nM | 3.47 µg/mL | CC(C)[C@H]1CC[C@@H](CO[C@H]2CC[C@H](C(=O)O)CC2)N1C(=O)Cc1cc(Cl)c(NC(=O)c2cn(C)c3ccccc23)cc1F [Example 173, trans-4-(1-((5-Chloro-2-fluoro-4-((1-methyl-3-indolylcarbonyl)amino)phenyl)acetyl)-(5R)-isopropyl-(2S)-pyrrolidinylmethoxy)cyclohexanecarboxylic acid]
4 | 5.1 nM | 2.93 µg/mL | C=CCO[C@H]1C[C@@H](CO[C@H]2CC[C@H](C(=O)O)CC2)N(C(=O)Cc2cc(Cl)c(NC(=O)c3cn(C)c4ccccc34)cc2F)C1 [Example 117, trans-4-((4S)-Allyloxy-1-((5-chloro-2-fluoro-4-(1-methyl-3-indolylcarbonylamino)phenyl)acetyl)-(2S)-pyrrolidinylmethoxy)cyclohexanecarboxylic acid]
5 | 3.6 nM | 2.21 µg/mL | Cn1cc(-c2nc3ccc(CC(=O)N4C[C@@H](F)C[C@H]4CO[C@H]4CC[C@H](C(=O)O)CC4)c(F)c3o2)c2ccccc21 [Example 98, trans-4-(1-((7-Fluoro-2-(1-methyl-3-indolyl)-6-benzoxazolyl)acetyl)-(4S)-fluoro-(2S)-pyrrolidinylmethoxy)cyclohexanecarboxylic acid]
6 | 9.1 nM | 2.43 µg/mL | COC[C@H]1C[C@@H](CO[C@H]2CC[C@H](C(=O)O)CC2)N(C(=O)Cc2cc(Cl)c(NC(=O)c3nn(C)c4ccccc34)cc2F)C1 [Example 139, trans-4-(1-(5-Chloro-2-fluoro-4-((1-methyl-1H-indazole-3-indazolylcarbonyl)amino)phenylacetyl)-(4S)-methoxymethyl-(2S)-pyrrolidinylmethoxy)cyclohexanecarboxylic acid]
7 | 3.1 nM | 8.55 µg/mL | O=C(Cc1cc(Cl)c(Nc2nc3cc(F)ccc3s2)cc1F)N1C[C@@H](F)C[C@H]1CO[C@H]1CC[C@H](C(=O)O)CC1 [Example 63, trans-4-(1-(5-Chloro-4-(5-fluoro-2-benzothiazolyl)amino-2-fluorophenylacetyl)-(4S)-fluoro-(2S)-pyrrolidinylmethoxy)cyclohexanecarboxylic acid]
8 | 2 nM | 0.912 µg/mL | Cc1ccc(F)cc1Nc1nc2ccc(CC(=O)N3C[C@@H](F)C[C@H]3CO[C@H]3CC[C@H](C(=O)O)CC3)c(F)c2o1 [Example 44, trans-4-(1-((2-(5-Fluoro-2-methylphenylamino)-7-fluoro-6-benzoxazolyl)acetyl)-(4S)-fluoro-(2S)-pyrrolidinylmethoxy)cyclohexanecarboxylic acid]
9 | 30 nM | 0.888 µg/mL | CO[C@@H]1C[C@@H](CO[C@H]2CC[C@H](C(=O)O)CC2)N(C(=O)Cc2cc(Cl)c(NC(=O)c3cn(C)c4ccccc34)cc2F)C1 [Example 115, trans4-(1-((5-chloro-2-fluoro-4-(1-methyl-3-indolylcarbonylamino)phenyl)acetyl)-(4R)-methoxy-(2S)-pyrrolidinylmethoxy)cyclohexanecarboxylic acid]
10 | 7.7 nM | 14.1 µg/mL | Cn1cc(C(=O)Nc2cc(F)c(CC(=O)N3C[C@@H](F)C[C@H]3CO[C@H]3CC[C@H](C(=O)O)CC3)cc2Cl)c2cc(F)ccc21 [Example 74, trans-4-(1-((5-Chloro-2-fluoro-4-(((5-fluoro-1-methyl-3-indolyl)carbonyl)amino)phenyl)acetyl)-(4S)-fluoro-(2S)-pyrrolidinylmethoxy)cyclohexanecarboxylic acid]
11 | 4.5 nM | 9.37 µg/mL | O=C(Nc1ccc(CC(=O)N2C[C@@H](F)C[C@H]2CO[C@H]2CC[C@H](C(=O)O)CC2)cc1Br)c1nccc2ccccc12 [Example 79, trans-4-(1-((3-Bromo-4-((1-isoquinolinylcarbonyl)amino)phenyl)acetyl)-(4S)-fluoro-(2S)-pyrrolidinylmethoxy)cyclohexanecarboxylic acid]
12 | 4.3 nM | 3.36 µg/mL | CO[C@H]1C[C@@H](CO[C@H]2CC[C@H](C(=O)O)CC2)N(C(=O)Cc2cc(Cl)c(NC(=O)c3cn(C)c4ccccc34)cc2Cl)C1 [Example 170, trans-4-(1-(2,5-Dichloro-4-((1-methyl-1H-3-indolylcarbonyl)amino)phenylacetyl)-(4S)-methoxy-(2S)-pyrrolidinylmethoxy)cyclohexanecarboxylic acid]
13 | 3.6 nM | 10.9 µg/mL | Cn1nc(C(=O)Nc2ccc(CC(=O)N3C[C@@H](F)C[C@H]3CO[C@H]3CC[C@H](C(=O)O)CC3)cc2Cl)c2ccccc21 [Example 89, trans-4-(1-((3-Chloro-4-((1-methyl-3-indazolylcarbonyl)amino)phenyl)acetyl)-(4S)-fluoro-(2S)-pyrrolidinylmethoxy)cyclohexanecarboxylic acid]
14 | 20 nM | 0.571 µg/mL | CO[C@@H]1CN(C(=O)Cc2ccc3nc(Nc4ccccc4C)oc3c2)C[C@@H]1Oc1ccc(C(=O)O)cc1 [Example 155, 4-((4R)-Methoxy-1-((2-(2-methylphenylamino)-6-benzoxazolyl)acetyl)-(3S)-pyrrolidinyloxy)benzoic acid]
15 | 6.8 nM | 0.848 µg/mL | O=C(Nc1cc(F)c(CC(=O)N2C[C@@H](F)C[C@H]2CO[C@H]2CC[C@H](C(=O)O)CC2)cc1Cl)c1n[nH]c2ccccc12 [Example 172, trans-4-(1-((5-Chloro-2-fluoro-4-(3-indazolylcarbonylamino)phenyl)acetyl)-(4S)-fluoro-(2S)-pyrrolidinylmethoxy)cyclohexanecarboxylic acid]
16 | 1.9 nM | 1.54 µg/mL | O=C(Nc1ccc(CC(=O)N2C[C@@H](F)C[C@H]2CO[C@H]2CC[C@H](C(=O)O)CC2)cc1Cl)c1nsc2ccccc12 [Example 83, trans-4-(1-(3-Chloro-4-((3-benzo(d)isothiazolylcarbonyl)amino)phenylacetyl)-(4S)-fluoro-(2S)-pyrrolidinylmethoxy)cyclohexanecarboxylic acid]
17 | 5.8 nM | 0.705 µg/mL | Cc1ccccc1Nc1nc2ccc(CC(=O)N3C[C@@H](Sc4ccccc4)C[C@H]3CO[C@H]3CC[C@H](C(=O)O)CC3)cc2o1 [Example 123]
18 | 6 nM | 1.19 µg/mL | Cc1ccc(Cl)cc1Nc1nc2ccc(CC(=O)N3C[C@@H](F)C[C@H]3CO[C@H]3CC[C@H](C(=O)O)CC3)c(F)c2o1 [Example 43, trans-4-(1-((2-(5-Chloro-2-methylphenylamino)-7-fluoro-6-benzoxazolyl)acetyl)-(4S)-fluoro-(2S)-pyrrolidinylmethoxy)cyclohexanecarboxylic acid]
19 | 14 nM | 2.18 µg/mL | O=C(O)C1CCC(OC[C@@H]2C[C@H](F)CN2C(=O)Cc2ccc3nc(Nc4ccccc4Cl)oc3c2)CC1 (single isomer, unassigned) [24 (Isomer A)]
20 | 4 nM | 11.5 µg/mL | Cn1cc(C(=O)Nc2cc(F)c(CC(=O)N3C[C@@H](F)C[C@H]3CO[C@H]3CC[C@H](C(=O)O)CC3)cc2Cl)c2ccccc21 [Example 65, trans-4-(1-((5-Chloro-2-fluoro-4-((1-methyl-3-indolylcarbonyl)amino)phenyl)acetyl)-(4S)-fluoro-(2S)-pyrrolidinylmethoxy)cyclohexanecarboxylic acid]
21 | 8.8 nM | 3.59 µg/mL | Cn1cc(C(=O)Nc2cc(F)c(CC(=O)N3CCC[C@H]3CO[C@H]3CC[C@H](C(=O)O)CC3)cc2Cl)c2ccccc21 [Example 130, trans-4-(1-((5-Chloro-2-fluoro-4-(1-methyl-3-indolylcarbonylamino)phenyl)acetyl)-(2S)-pyrrolidinylmethoxy)-1-cyclohexanecarboxylic acid]
22 | 18 nM | 1.09 µg/mL | O=C(O)C1CCC(OC[C@@H]2C[C@H](F)CN2C(=O)Cc2ccc3nc(Nc4ccccc4Br)oc3c2)CC1 (single isomer, unassigned) [25 (Isomer A)]
23 | 15 nM | 1.26 µg/mL | COC[C@H]1C[C@@H](CO[C@H]2CC[C@H](C(=O)O)CC2)N(C(=O)Cc2cc(Cl)c(NC(=O)c3cn(C)c4ccccc34)cc2F)C1 [Example 138, trans-4-(1-(5-Chloro-2-fluoro-4-((1-methyl-1H-3-indolylcarbonyl)amino)phenylacetyl)-(4S)-methoxymethyl-(2S)-pyrrolidinylmethoxy)cyclohexanecarboxylic acid]
